In series [1] the test system is cytochrome P450 family 3 subfamily A member 4 [CYP3A4]. To be noted: cited from earlier work.
Series [2] is classed as in vivo, patients. To be noted: with crizotinib 150 mg twice daily; 3 plus 3 design.

The values that follow come from publication PMC7249761 (Journal of thoracic oncology : official publication of the …, 2016).

In the case of `C[C@@H](Oc1cc(-c2cnn(C3CCNCC3)c2)cnc1N)c1c(Cl)ccc(F)c1Cl` [crizotinib], the CYP3A4 inhibition entry in series [1] was “moderate cytochrome P450 family 3 subfamily A member 4 [CYP3A4] inhibitor”.

Turning to `C#Cc1cccc(Nc2ncnc3cc(OCCOC)c(OCCOC)cc23)c1` [erlotinib], the “maximum tolerated dose (MTD) of erlotinib in the combination” value in series [2] was 100 mg once daily.
